Patent US8916164B2, “Methods of enhancing adjuvaticity of vaccine compositions” (ABIVAX, priority 2007, dated 2014)
Entries after “also recorded” stand apart in the source; their conditions may differ.

Legend:
[1] = test system: INF-γ and IL-4; conditions: in vitro; cited from earlier work
[2] = test system: NKT cells; test: Expansion of NKT cells in culture of peripheral blood lymphocytes (PBL), flow cytometry on day 7; format: cell-based, human; conditions: for percentage of NKT cells in the CD3+ population: PBL of two healthy donors, 10 ng/ml, 100 ng/ml or 1 μg/ml, rhIL-2, day 7 (FIG. 1)
Method: PBLs were derived from two healthy donors and grown in RPMI cell culture media with 5% AB serum. Cells were plated on 12-well plates at 2×10^6 PBL/well/2 ml. Wells were treated with negative controls (0.05% Tween20 and 1% DMSO in PBS or 0.05% Tween20 and 10% DMSO in PBS) or the test adjuvants (αGalCer, PBS-20, PBS-25, or PBS-57) at a final concentration of 10 ng/ml, 100 ng/ml or 1 μg/ml. The chemical structures for control compounds αGalCer, PBS-20 and PBS25 are shown below:
All cultures were supplemented with recombinant human IL2 (rhIL-2) to obtain final concentration of 100 UI/ml by day 1. All cells were cultured for 10 days at 37° C. under 5% CO2. On day 7, half the culture medium (1 ml) was removed for NKT analysis. Percentage of NKT cells in the CD3+ population was detected by flow cytometry using fluorescently labeled CD1 tetramers or fluorescently labeled antibodies (anti-CD3, anti-Vβ11, and anti NKT). The NKT population was identified by flow cytometry as the Vβ11+, Tetramer+ and TCRαβ+ population. NKT cell percentage was calculated in each sample by subtracting the Vβ11+ PBS -57-tetramer+ TCRαβ+ from the Vβ11+ empty-tetramer+TCRαβ+.
Peripheral blood lymphocytes were derived from two healthy donors and cultured in RPMI with 5% AB serum. Cells are plated in a 12-well plate with 2×10^6 cells per well per 2 ml media. One well received carrier (0.05% Tween20 and 1% DMSO in PBS) as a negative control, and test wells received αGalCer, PBS-25, PBS-57, or PBS-83 at final concentrations of 1 ng/ml, 10 ng/ml and 100 ng/ml. The structure of PBS-83 is shown below:
All cultures were supplemented with rhIL-2 to obtain a final concentration of 100 UI/ml by day 1, and cultured for 7 days at 37° C. under 5% CO2 conditions. At day 7, the percentage NKT cells was detected by flow cytometry.

[3] = test system: Ova-specific CD8+ T cells; test: H2Kb-SIINFEKL pentamer staining of CD8+ T cells in blood after immunization with Ova; format: in vivo, C57/B1/6J CD45.2 female mice
Method: A mouse model was used to test the in vivo specific T cell response (CD8+) elicited by PBS57 in combination with antigen. C57/B1/6J CD45.2 female mice were immunized intramuscularly on day 0 and 14 with antigen (Ovalbumin, Ova, grade VII, Sigma, St. Louis, Mo.) with or without adjuvant, adjuvant alone, or carrier alone (control) in a total of 100 μl PBS carrier. Test adjuvant was 1 μg PBS57 with or without 50 μg Ova. Each group included at least three mice. Blood was collected from each mouse at day 21 and isolated cells were subjected to pentamer staining with H2K^b-SIINFEKL pentamers after blocking the Fc receptor. FACS analysis was performed including only CD8+ cells in the analysis (CD19+ cells were excluded from the analysis to exclude any B cells). […] The results are reported as mean+/−standard deviation of H2K^b-SIINFEKL specific CD8+ T cells in the blood.
A mouse model was used to test the in vivo specific T cell response (CD8+) elicited by PBS57 in combination with antigen as compared to that of αGalCer. C57/B1/6J CD45.2 female mice were immunized subcutaneously on day 0 and 14 with antigen (Ovalbumin, Ova, grade VII, Sigma, St. Louis, Mo.) with or without adjuvant, adjuvant alone, or carrier alone (control) in a total of 100 μl PBS carrier. Test adjuvant was 1 μg PBS57 or αGalCer with or without 50 μg Ova. Each group included at least three mice. […]

[4] = test system: NKT cells; test: Increase in NKT cells (day 7 / day 0) in PBL/PBMC cultures from healthy donors; format: cell-based; conditions: PBL cultures from human volunteers (FIG. 3)
Method: NKT staining was performed on a panel of fourteen healthy donor peripheral blood lymphocytes (PBL) or peripheral blood […] (PBMC) samples. PBLs were isolated from 12 subjects, and PBMCs were isolated from 2 subjects. Each isolated cell sample was split into two samples. The first sample from each donor was stained with 10 μl anti-Vβ11 FITC (Beckman Coulter), 10 μl anti-TCRαβ-PC5 (Beckman Coulter), and 2 μl PE-labeled PBS-57-CD1d-tetramer. The second sample from each donor was stained with 10 μl Vβ11, 10 μl anti-TCRαβ-FITC, and 2 μl PE-labeled empty-CD1d-tetramer.
To determine a percentage increase in NKT cells, the number of NKT cells on day 7 was divided by the number of NKT cells on day 0.

[5] = test system: CD11c+CD8α− and CD11c+CD8α+ dendritic cells; test: Dendritic cell subsets and maturation (CD40, CD80, CD86) in splenocytes of mice 24 hours after intravenous administration; format: in vivo, C57B1/6J mice; conditions: for decrease of both subsets of DCs (CD11c+CD8α− and CD11c+CD8α+) compared to the control: splenocytes; for percentage of CD40+, CD80+ and CD86+ expressing cells in both the CD11c+CD8α− and CD11c+CD8α+ populations: splenocytes (FIGS. 5A-5F)
Method: (§1) To test for adjuvant activity of PBS57 in vivo, mice were injected with test compounds and assayed for cell activation and expansion at 24 hours. Four groups of five C57B1/6J mice were each intravenously administered phosphate buffered saline (PBS) with carrier (DMSO alone), 0.97 μg of αGalCer, 1.3 μg of PBS57, or 0.97 μg of PBS83 in a total of 100 μl PBS. 24 hours after administration of the test compound, the mice were sacrificed and blood samples and splenocytes were isolated by standard methods. Percentage of NKT cells in the spleen was evaluated by flow cytometry with staining using anti-TCRαβ-FITC and PE-labeled CD1d-tetramer loaded with PBS-57 (PBS57-tetramer) or without lipid (empty-tetramer). […] The percentage of NKT cells was determined by subtracting the percentage of PBS57-tetramer+ cells from the percentage of empty-tetramer+ cells in the TCRαβ population.
Dendritic cells (DCs) were detected in the splenocytes by flow cytometry by staining with anti-CD11c R-PE (BD Pharmingen) and anti-CD8α FITC (Beckman Coulter). Two subsets of dendritic cells, CD11c+CD8α− and CD11c+CD8α+ populations, were analyzed further. […] To determine if administration of glycolipid induced maturation of the two subsets of dendritic cells, the cells were stained with anti-CD40 Biotin/Stepta APC (BD Bioscience), anti-CD80 Biotin (BD Pharmingen)/Stepta APC (BD Bioscience) and anti-CD86 Biotin (BD Pharmingen)/Stepta APC (BD Bioscience) antibodies and analyzed by flow cytometry. FIGS. 5A and 5B show the percentage of CD40 positive cells in both the CD11c+CD8α− and CD11c+CD8α+ cells, respectively. […] Horizontal lines represent the averages.

[6] = test system: TCRαβ cells and NKT cells in the spleen; test: TCRαβ and NKT cell populations in the spleen of mice 24 hours after intravenous administration; format: in vivo, C57B1/6J mice; conditions: 0.97 μg αGalCer or 1.3 μg PBS57, 24 hours; for percentage of TCRαβ cells in the spleen: compared with PBS and carrier control (FIG. 4A); for percentage of NKT cells within the TCRαβ population in the spleen: relative to control (FIG. 4B)
Method: as §1

[7] = test system: tetanus toxoid; test: Antibody (IgG) response to tetanus toxoid immunization, tetanus toxoid specific ELISA; format: in vivo; conditions: mice, IM day 0 and day 15, 10 μg TT with 1 μg PBS57 versus TT alone, blood day 0, 15 and 30 (FIG. 14)
Method: IgG titers were determined by standard methods from blood samples drawn on day 0, 15 and 30. The antibody titer was determined by tetanus toxoid specific ELISA.

[8] = test system: Ova-specific target cells; test: In vivo specific cytotoxic T cell (CD8+) response: specific lysis of CFSE-labeled SIINFEKL-loaded target cells in immunized mice; parameters: species or system C57/B1/6J CD45.2 female mice; conditions: for specific lysis of Ova-specific target cells in the blood, IM versus IV: 400 μg Ova and 1 μg adjuvant in 50 μl PBS, IM or IV, readout day 11 (FIG. 13); for specific lysis of Ova-specific target cells in the blood, intramuscular immunization: IM hind left leg, 400 μg Ova with 1 μg to 10 pg adjuvant, readout day 11 (FIG. 11, FIG. 12); for specific lysis of Ova-specific target cells in the blood, intravenous immunization: 50 μg Ova with varying doses of adjuvant, readout day 11 (FIG. 8, FIG. 9)

SMILES	release of INF-γ and IL-4 [1]	percentage of NKT cells in the CD3+ population [2]	increase in NKT cells over cells treated with αGalCer ([2]; separate experiment, PBL of two healthy donors, 1, 10 and 100 ng/ml, day 7 (FIG. 2))	H2Kb-SIINFEKL specific CD8+ T cells in the blood, intramuscular immunization ([3]; IM day 0 and 14, 1 μg PBS57 with 50 μg Ova, compared to Ova alone, blood day 21 (FIG. 15))	H2Kb-SIINFEKL specific CD8+ T cells in the blood, subcutaneous immunization ([3]; SC day 0 and 14, 1 μg PBS57 with 50 μg Ova, compared to Ova alone or αGalCer and Ova, blood day 21 (FIG. 16))	increase in NKT cells (number on day 7 divided by number on day 0) [4]	decrease of both subsets of DCs (CD11c+CD8α− and CD11c+CD8α+) compared to the control [5]	percentage of CD40+, CD80+ and CD86+ expressing cells in both the CD11c+CD8α− and CD11c+CD8α+ populations [5]	percentage of TCRαβ cells in the spleen [6]	percentage of NKT cells within the TCRαβ population in the spleen [6]	antibody (IgG) titer to tetanus toxoid [7]	specific lysis of Ova-specific target cells in the spleen ([8]; 1 μg adjuvant with 50 μg Ova on day 0, target cells day 10, readout day 11 (FIG. 7))	specific lysis of Ova-specific target cells in the blood, IM versus IV [8]	specific lysis of Ova-specific target cells in the blood, intramuscular immunization [8]	specific lysis of Ova-specific target cells, varying Ova dose ([8]; IV, 1 μg PBS57 with 50 μg to 10 pg Ova, readout day 11 (FIG. 10))	specific lysis of Ova-specific target cells in the blood, intravenous immunization ([8]; IV)
CCCCCCCCC=CCCCCCCCCCCCCCC(=O)N[C@@H](OC1OC(CNC(C)=O)C(O)C(O)C1O)C(O)[C@H](O)CCCCCCCCCCCCCC (stereo partly drawn) [PBS57]	induce the release of the INF-γ and IL-4	expansion of NKT cells	at least a two fold increase	increase in Ova-specific CD8+ T cells	increase in Ova-specific CD8+ T cells	substantial increase in NKT cells	50%	substantially increased	increase in percentage of TCRαβ cells	decrease in percentage of NKT cells	enhanced the antibody response to TT	produced cytotoxic lysis of Ova-specific target cells	caused a cytotoxic response regardless of the route of administration	can elicit a specific cytotoxic response when injected both intravenously and intramuscularly	dependent on antigen concentration	dose-dependent specific cytotoxic effect
CCCCCCCCCCCCCCCCCCCCCCCCCC(=O)N[C@@H](COC1OC(CO)C(O)C(O)C1O)[C@H](O)[C@H](O)CCCCCCCCCCCCCC (stereo partly drawn) [αGalCer, α-galactosyceramide, reference compound]		expansion of NKT cells					50%	substantially increased	increase in percentage of TCRαβ cells	decrease in percentage of NKT cells			did not induce a cytotoxic response when injected intramuscularly	not able to generate a specific cytotoxic T cell response; also recorded: can only elicit a cytotoxic response when injected intravenously		dose dependent specific cytotoxic effect; also recorded: elicited a cytotoxic response when injected intravenously at 1 μg-10 ng
